Reference: the kinase profiling compilation of Christmann-Franck et al. (2016)

Columns and labels:
Assay in all cases: radiometric filter-binding kinase assay
[1] = system: AKT2 (human), P31751 [S474D]
[2] = molecular target: CAMKK2 (human) (UniProt Q96RR4)
[3] = molecular target: CHEK1 (human) (UniProt O14757)
[4] = molecular target: CLK2 (human) (UniProt P49760)
[5] = molecular target: CSNK1D (human) (UniProt P48730)
[6] = molecular target: DYRK1A (human) (UniProt Q13627)
[7] = molecular target: EPHA4 (human) (UniProt P54764)
[8] = molecular target: HIPK3 (human) (UniProt Q9H422)
[9] = molecular target: IGF1R (human) (UniProt P08069)
[10] = molecular target: IKBKE (human) (UniProt Q14164)
Chain of IKBKE (human) (Q14164 whole entry, looked up): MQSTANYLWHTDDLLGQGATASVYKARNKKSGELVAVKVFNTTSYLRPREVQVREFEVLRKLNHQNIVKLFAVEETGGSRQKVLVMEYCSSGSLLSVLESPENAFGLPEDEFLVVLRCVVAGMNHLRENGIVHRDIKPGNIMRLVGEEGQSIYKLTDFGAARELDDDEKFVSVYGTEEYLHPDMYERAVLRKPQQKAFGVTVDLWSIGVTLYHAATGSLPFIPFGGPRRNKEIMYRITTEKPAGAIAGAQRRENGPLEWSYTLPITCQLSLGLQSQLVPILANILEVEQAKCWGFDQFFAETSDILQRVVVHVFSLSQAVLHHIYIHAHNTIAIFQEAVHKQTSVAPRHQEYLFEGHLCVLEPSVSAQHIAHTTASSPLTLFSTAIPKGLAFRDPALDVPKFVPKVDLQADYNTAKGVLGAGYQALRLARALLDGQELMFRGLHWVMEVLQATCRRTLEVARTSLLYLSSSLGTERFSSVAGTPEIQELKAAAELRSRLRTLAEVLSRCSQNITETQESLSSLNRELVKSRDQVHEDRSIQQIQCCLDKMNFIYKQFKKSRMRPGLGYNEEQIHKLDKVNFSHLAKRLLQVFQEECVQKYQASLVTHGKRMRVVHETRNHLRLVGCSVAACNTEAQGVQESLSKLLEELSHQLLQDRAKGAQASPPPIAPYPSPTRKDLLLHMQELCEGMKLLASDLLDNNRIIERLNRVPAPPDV

[11] = molecular target: IRAK4 (human) (UniProt Q9NWZ3)
[12] = molecular target: MAP3K7 TAB1 (human) (UniProt Q15750+O43318)
Chain of MAP3K7 TAB1 (human) (O43318 whole entry, looked up): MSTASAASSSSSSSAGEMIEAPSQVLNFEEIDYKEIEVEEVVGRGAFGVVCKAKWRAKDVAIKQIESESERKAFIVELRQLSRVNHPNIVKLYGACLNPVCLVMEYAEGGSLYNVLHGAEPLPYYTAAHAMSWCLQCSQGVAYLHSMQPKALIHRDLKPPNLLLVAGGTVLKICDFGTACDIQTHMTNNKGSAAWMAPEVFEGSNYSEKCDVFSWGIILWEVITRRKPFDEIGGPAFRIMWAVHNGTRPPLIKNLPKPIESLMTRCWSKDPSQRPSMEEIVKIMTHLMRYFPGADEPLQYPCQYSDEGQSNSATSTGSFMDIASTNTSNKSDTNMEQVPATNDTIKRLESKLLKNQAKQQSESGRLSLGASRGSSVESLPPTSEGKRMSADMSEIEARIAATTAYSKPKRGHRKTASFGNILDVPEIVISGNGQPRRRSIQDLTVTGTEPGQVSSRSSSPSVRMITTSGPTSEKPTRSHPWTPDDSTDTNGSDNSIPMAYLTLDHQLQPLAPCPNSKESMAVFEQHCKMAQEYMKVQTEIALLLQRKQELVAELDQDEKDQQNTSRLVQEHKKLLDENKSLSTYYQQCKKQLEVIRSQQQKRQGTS
Chain of MAP3K7 TAB1 (human) (Q15750 whole entry, looked up): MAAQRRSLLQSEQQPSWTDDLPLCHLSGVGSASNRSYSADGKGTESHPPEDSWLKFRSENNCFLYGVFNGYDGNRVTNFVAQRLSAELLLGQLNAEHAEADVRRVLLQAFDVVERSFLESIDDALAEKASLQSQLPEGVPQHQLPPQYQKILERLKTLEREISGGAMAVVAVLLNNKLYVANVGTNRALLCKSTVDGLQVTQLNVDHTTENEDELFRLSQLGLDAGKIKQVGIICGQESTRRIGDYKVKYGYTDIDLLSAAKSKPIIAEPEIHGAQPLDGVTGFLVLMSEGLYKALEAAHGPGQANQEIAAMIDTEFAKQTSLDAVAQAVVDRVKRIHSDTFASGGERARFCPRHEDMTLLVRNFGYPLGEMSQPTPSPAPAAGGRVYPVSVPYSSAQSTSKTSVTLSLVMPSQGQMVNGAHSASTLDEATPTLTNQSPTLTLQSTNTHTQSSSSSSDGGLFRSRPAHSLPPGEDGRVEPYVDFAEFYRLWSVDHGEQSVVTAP

[13] = molecular target: MAPK12 (human) (UniProt P53778)
Chain of MAPK12 (human) (P53778 whole entry, looked up): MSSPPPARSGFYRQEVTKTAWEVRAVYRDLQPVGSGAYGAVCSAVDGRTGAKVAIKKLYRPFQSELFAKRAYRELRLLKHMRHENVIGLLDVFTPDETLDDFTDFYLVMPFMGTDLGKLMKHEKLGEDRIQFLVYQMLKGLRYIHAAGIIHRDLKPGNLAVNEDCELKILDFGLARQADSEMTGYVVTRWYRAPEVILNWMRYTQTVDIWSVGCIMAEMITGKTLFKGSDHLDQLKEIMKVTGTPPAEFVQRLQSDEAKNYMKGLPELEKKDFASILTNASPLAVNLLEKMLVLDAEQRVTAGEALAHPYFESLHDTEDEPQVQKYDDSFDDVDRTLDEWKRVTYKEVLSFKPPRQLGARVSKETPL

[14] = molecular target: MAPK14 (human) (UniProt Q16539)
[15] = molecular target: MAPK15 (human) (UniProt Q8TD08)
Chain of MAPK15 (human) (Q8TD08 whole entry, looked up): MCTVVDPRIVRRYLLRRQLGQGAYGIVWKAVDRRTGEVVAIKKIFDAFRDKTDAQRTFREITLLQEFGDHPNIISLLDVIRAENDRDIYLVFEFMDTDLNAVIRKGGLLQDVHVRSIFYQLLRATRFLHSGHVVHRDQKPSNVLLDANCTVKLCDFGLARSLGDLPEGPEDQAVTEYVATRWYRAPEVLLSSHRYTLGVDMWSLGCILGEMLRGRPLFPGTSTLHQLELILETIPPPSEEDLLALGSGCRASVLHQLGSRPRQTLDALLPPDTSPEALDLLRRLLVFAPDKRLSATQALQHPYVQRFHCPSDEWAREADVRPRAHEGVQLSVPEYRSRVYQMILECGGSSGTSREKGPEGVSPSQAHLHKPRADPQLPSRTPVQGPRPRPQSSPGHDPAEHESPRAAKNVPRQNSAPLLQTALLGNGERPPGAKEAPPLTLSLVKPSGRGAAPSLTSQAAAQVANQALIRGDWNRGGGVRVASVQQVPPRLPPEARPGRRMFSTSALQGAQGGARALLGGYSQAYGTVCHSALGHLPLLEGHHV

[16] = molecular target: MAPK3 (human) (UniProt P27361)
[17] = molecular target: MAPKAPK2 (human) (UniProt P49137)
[18] = molecular target: MARK1 (human) (UniProt Q9P0L2)
[19] = molecular target: MARK2 (human) (UniProt Q7KZI7)
[20] = molecular target: MST4 (human) (UniProt Q9P289)
[21] = molecular target: NEK2 (human) (UniProt P51955)
[22] = molecular target: NEK6 (human) (UniProt Q9HC98)
[23] = system: PAK2 (human), Q13177 [T402E]
[24] = molecular target: PAK4 (human) (UniProt O96013)
[25] = molecular target: PAK6 (human) (UniProt Q9NQU5)
[26] = molecular target: PAK7 (human) (UniProt Q9P286)
Chain of PAK7 (human) (Q9P286 whole entry, looked up): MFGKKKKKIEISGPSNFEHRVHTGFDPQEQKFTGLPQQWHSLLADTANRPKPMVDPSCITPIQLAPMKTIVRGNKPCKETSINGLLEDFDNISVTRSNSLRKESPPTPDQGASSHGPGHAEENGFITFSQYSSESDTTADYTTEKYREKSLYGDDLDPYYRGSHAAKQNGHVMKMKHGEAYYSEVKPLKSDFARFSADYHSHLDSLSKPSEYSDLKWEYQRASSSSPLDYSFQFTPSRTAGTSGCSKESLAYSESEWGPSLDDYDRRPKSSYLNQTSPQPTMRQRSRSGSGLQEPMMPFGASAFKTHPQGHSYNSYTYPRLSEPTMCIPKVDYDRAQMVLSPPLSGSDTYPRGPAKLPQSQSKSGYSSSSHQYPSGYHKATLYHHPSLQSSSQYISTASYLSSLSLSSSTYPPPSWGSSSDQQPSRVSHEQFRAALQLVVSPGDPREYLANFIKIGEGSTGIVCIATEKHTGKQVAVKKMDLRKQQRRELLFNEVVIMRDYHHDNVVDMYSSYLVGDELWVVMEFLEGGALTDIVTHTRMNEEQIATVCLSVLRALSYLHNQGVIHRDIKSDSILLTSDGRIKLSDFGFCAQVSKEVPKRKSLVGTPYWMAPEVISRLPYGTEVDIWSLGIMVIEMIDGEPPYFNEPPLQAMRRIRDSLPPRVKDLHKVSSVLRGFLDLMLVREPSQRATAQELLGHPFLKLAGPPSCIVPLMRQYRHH

[27] = molecular target: PIM2 (human) (UniProt Q9P1W9)
Chain of PIM2 (human) (Q9P1W9 whole entry, looked up): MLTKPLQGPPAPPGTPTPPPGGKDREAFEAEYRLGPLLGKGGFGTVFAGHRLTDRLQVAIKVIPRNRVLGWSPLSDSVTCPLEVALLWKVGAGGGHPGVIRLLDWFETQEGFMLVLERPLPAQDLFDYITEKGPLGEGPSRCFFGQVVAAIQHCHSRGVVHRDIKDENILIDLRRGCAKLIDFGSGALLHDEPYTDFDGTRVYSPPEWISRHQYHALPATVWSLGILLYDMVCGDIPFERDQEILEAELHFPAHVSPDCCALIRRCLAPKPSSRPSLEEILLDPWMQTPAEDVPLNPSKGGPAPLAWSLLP

[28] = molecular target: PIM3 (human) (UniProt Q86V86)
[29] = molecular target: PKN2 (human) (UniProt Q16513)
[30] = molecular target: PLK1 (human) (UniProt P53350)
[31] = molecular target: RIPK2 (human) (UniProt O43353)
[32] = molecular target: RPS6KA3 KD1 KD2 (human) (UniProt P51812)
[33] = molecular target: RPS6KA5 KD1 KD2 (human) (UniProt O75582)
[34] = system: SGK1 (human), O00141 [S422D]
[35] = molecular target: SRPK1 (human) (UniProt Q96SB4)
Chain of SRPK1 (human) (Q96SB4 whole entry, looked up): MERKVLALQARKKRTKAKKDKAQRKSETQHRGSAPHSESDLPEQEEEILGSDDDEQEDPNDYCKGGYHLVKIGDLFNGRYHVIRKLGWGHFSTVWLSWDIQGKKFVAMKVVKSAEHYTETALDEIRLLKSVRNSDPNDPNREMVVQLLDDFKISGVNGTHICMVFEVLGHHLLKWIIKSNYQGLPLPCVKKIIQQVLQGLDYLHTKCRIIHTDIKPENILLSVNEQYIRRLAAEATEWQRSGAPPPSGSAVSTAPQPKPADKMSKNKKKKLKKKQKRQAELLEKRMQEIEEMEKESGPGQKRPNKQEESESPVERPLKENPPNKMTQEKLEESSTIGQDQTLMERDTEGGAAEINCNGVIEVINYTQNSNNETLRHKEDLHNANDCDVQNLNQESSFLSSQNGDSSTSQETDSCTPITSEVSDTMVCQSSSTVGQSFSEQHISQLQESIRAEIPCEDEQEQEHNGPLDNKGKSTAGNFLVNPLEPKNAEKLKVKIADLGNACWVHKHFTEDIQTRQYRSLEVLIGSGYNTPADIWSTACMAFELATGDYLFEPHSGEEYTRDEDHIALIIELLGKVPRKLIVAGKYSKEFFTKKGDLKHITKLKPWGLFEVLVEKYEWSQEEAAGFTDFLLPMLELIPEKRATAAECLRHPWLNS

Chain of CHEK1 (human) (O14757 whole entry, looked up): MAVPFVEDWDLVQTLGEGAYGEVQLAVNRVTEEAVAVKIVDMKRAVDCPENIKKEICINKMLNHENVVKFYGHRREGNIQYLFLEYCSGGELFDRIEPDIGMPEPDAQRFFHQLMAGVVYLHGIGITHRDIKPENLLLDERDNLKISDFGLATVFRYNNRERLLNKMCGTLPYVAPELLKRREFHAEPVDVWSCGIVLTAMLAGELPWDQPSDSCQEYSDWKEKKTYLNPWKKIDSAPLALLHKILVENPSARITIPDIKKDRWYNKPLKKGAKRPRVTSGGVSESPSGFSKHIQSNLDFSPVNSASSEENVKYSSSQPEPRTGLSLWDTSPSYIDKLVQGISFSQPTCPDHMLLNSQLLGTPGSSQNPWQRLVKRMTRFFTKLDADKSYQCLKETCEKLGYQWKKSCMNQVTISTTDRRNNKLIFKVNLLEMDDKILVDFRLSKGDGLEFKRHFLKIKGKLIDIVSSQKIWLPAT

CCNc1nc(Nc2cc(F)c(C(=O)N3CCOCC3)cc2OC)ncc1C(F)(F)F
residual activity ([1]; compound 1.0 µM): 92%
residual activity ([1]; compound 10.0 µM): 95%
residual activity ([2]; compound 1.0 µM): 28%
residual activity ([2]; compound 10.0 µM): 7%
residual activity ([3]; compound 1.0 µM): 44%
residual activity ([3]; compound 10.0 µM): 12%
residual activity ([4]; compound 1.0 µM): 50%
residual activity ([4]; compound 10.0 µM): 9%
residual activity ([5]; compound 1.0 µM): 98%
residual activity ([5]; compound 10.0 µM): 81%
residual activity ([6]; compound 1.0 µM): 85%
residual activity ([6]; compound 10.0 µM): 48%
residual activity ([7]; compound 1.0 µM): 97%
residual activity ([7]; compound 10.0 µM): 76%
residual activity ([8]; compound 1.0 µM): 107%
residual activity ([8]; compound 10.0 µM): 98%
residual activity ([9]; compound 1.0 µM): 32%
residual activity ([9]; compound 10.0 µM): 38%
residual activity ([10]; compound 1.0 µM): 78%
residual activity ([10]; compound 10.0 µM): 23%
residual activity ([11]; compound 1.0 µM): 103%
residual activity ([11]; compound 10.0 µM): 83%
residual activity ([12]; compound 1.0 µM): 17%
residual activity ([12]; compound 10.0 µM): 2%
residual activity ([13]; compound 1.0 µM): 99%
residual activity ([13]; compound 10.0 µM): 102%
residual activity ([14]; compound 1.0 µM): 89%
residual activity ([14]; compound 10.0 µM): 101%
residual activity ([15]; compound 1.0 µM): 96%
residual activity ([15]; compound 10.0 µM): 78%
residual activity ([16]; compound 1.0 µM): 85%
residual activity ([16]; compound 10.0 µM): 54%
residual activity ([17]; compound 1.0 µM): 107%
residual activity ([17]; compound 10.0 µM): 85%
residual activity ([18]; compound 1.0 µM): 97%
residual activity ([18]; compound 10.0 µM): 58%
residual activity ([19]; compound 1.0 µM): 98%
residual activity ([19]; compound 10.0 µM): 73%
residual activity ([20]; compound 1.0 µM): 86%
residual activity ([20]; compound 10.0 µM): 74%
residual activity ([21]; compound 1.0 µM): 99%
residual activity ([21]; compound 10.0 µM): 92%
residual activity ([22]; compound 1.0 µM): 103%
residual activity ([22]; compound 10.0 µM): 84%
residual activity ([23]; compound 1.0 µM): 86%
residual activity ([23]; compound 10.0 µM): 86%
residual activity ([24]; compound 1.0 µM): 92%
residual activity ([24]; compound 10.0 µM): 32%
residual activity ([25]; compound 1.0 µM): 107%
residual activity ([25]; compound 10.0 µM): 93%
residual activity ([26]; compound 1.0 µM): 95%
residual activity ([26]; compound 10.0 µM): 56%
residual activity ([27]; compound 10.0 µM): 93%
residual activity ([28]; compound 1.0 µM): 105%
residual activity ([28]; compound 10.0 µM): 76%
residual activity ([29]; compound 1.0 µM): 73%
residual activity ([29]; compound 10.0 µM): 65%
residual activity ([30]; compound 1.0 µM): 76%
residual activity ([30]; compound 10.0 µM): 39%
residual activity ([31]; compound 1.0 µM): 86%
residual activity ([31]; compound 10.0 µM): 74%
residual activity ([32]; compound 1.0 µM): 34%
residual activity ([32]; compound 10.0 µM): 9%
residual activity ([33]; compound 1.0 µM): 91%
residual activity ([33]; compound 10.0 µM): 49%
residual activity ([34]; compound 1.0 µM): 72%
residual activity ([34]; compound 10.0 µM): 59%
residual activity ([35]; compound 1.0 µM): 79%
residual activity ([35]; compound 10.0 µM): 68%

CCCC(CCC)C(=O)O
residual activity ([1]; compound 10.0 µM): 86%
residual activity ([1]; compound 50.0 µM): 80%
residual activity ([2]; compound 10.0 µM): 98%
residual activity ([2]; compound 50.0 µM): 104%
residual activity ([3]; compound 1.0 µM): 82%
residual activity ([3]; compound 10.0 µM): 95%
residual activity ([3]; compound 50.0 µM): 95%
residual activity ([4]; compound 10.0 µM): 90%
residual activity ([4]; compound 50.0 µM): 86%
residual activity ([5]; compound 1.0 µM): 108%
residual activity ([5]; compound 10.0 µM): 107%
residual activity ([5]; compound 50.0 µM): 90%
residual activity ([6]; compound 1.0 µM): 98%
residual activity ([6]; compound 50.0 µM): 89%
residual activity ([7]; compound 10.0 µM): 117%
residual activity ([7]; compound 50.0 µM): 104%
residual activity ([8]; compound 10.0 µM): 89%
residual activity ([8]; compound 50.0 µM): 97%
residual activity ([9]; compound 10.0 µM): 76%
residual activity ([9]; compound 50.0 µM): 56%
residual activity ([10]; compound 10.0 µM): 101%
residual activity ([10]; compound 50.0 µM): 81%
residual activity ([11]; compound 10.0 µM): 94%
residual activity ([11]; compound 50.0 µM): 99%
residual activity ([12]; compound 10.0 µM): 92%
residual activity ([13]; compound 1.0 µM): 93%
residual activity ([13]; compound 10.0 µM): 95%
residual activity ([13]; compound 50.0 µM): 89%
residual activity ([14]; compound 1.0 µM): 82%
residual activity ([14]; compound 10.0 µM): 107%
residual activity ([15]; compound 1.0 µM): 90%
residual activity ([15]; compound 10.0 µM): 86%
residual activity ([15]; compound 50.0 µM): 94%
residual activity ([16]; compound 10.0 µM): 88%
residual activity ([16]; compound 50.0 µM): 101%
residual activity ([17]; compound 1.0 µM): 85%
residual activity ([17]; compound 10.0 µM): 102%
residual activity ([17]; compound 50.0 µM): 99%
residual activity ([18]; compound 10.0 µM): 97%
residual activity ([18]; compound 50.0 µM): 101%
residual activity ([19]; compound 10.0 µM): 104%
residual activity ([19]; compound 50.0 µM): 90%
residual activity ([20]; compound 10.0 µM): 102%
residual activity ([20]; compound 50.0 µM): 100%
residual activity ([21]; compound 1.0 µM): 79%
residual activity ([21]; compound 10.0 µM): 93%
residual activity ([21]; compound 50.0 µM): 91%
residual activity ([22]; compound 1.0 µM): 99%
residual activity ([22]; compound 10.0 µM): 100%
residual activity ([22]; compound 50.0 µM): 102%
residual activity ([23]; compound 10.0 µM): 86%
residual activity ([23]; compound 50.0 µM): 91%
residual activity ([24]; compound 10.0 µM): 86%
residual activity ([24]; compound 50.0 µM): 90%
residual activity ([25]; compound 10.0 µM): 95%
residual activity ([25]; compound 50.0 µM): 104%
residual activity ([26]; compound 10.0 µM): 101%
residual activity ([26]; compound 50.0 µM): 90%
residual activity ([27]; compound 1.0 µM): 83%
residual activity ([27]; compound 10.0 µM): 104%
residual activity ([27]; compound 50.0 µM): 98%
residual activity ([28]; compound 10.0 µM): 97%
residual activity ([28]; compound 50.0 µM): 95%
residual activity ([29]; compound 1.0 µM): 83%
residual activity ([29]; compound 10.0 µM): 106%
residual activity ([30]; compound 1.0 µM): 97%
residual activity ([30]; compound 10.0 µM): 95%
residual activity ([30]; compound 50.0 µM): 93%
residual activity ([31]; compound 10.0 µM): 104%
residual activity ([31]; compound 50.0 µM): 90%
residual activity ([32]; compound 1.0 µM): 94%
residual activity ([32]; compound 10.0 µM): 94%
residual activity ([32]; compound 50.0 µM): 93%
residual activity ([33]; compound 1.0 µM): 94%
residual activity ([33]; compound 10.0 µM): 86%
residual activity ([33]; compound 50.0 µM): 91%
residual activity ([34]; compound 1.0 µM): 89%
residual activity ([34]; compound 10.0 µM): 98%
residual activity ([35]; compound 1.0 µM): 94%
residual activity ([35]; compound 10.0 µM): 107%
residual activity ([35]; compound 50.0 µM): 108%
